Where two headings read alike, the source gives them in different places. *1 amine or outer side, *2 acyl side, *3 side chain or, on linkers, in order; H or OH if unused. Where a SMILES comes first, the peptide text is derived from it. Bridges are numbered along the chain shown (N, C = ends). [ ]: non-standard residue; d: D form. The star is where a group is joined. X1 = CCc1c2c(nc3ccc(O)cc13)-c1cc3c(c(=O)n1C2)COC(=O)[C@@]3(CC)OC(=O)CCCCn1cc(CCCC(=O)NCCCOCCOCCOCCCN*)nn1; Suc = O=C(CCC(=O)[*:2])[*:1]; Dap = NC[C@H](N)C(=O)O
Experiments:
[1] = tested on: pediatric high-grade glioma HSJD-GBM-001; experiment: cells; type: cell-based; settings: MTS, 72 h incubation
Description: (§1) Cancer cell lines were obtained from the repository maintained at Hospital Sant Joan de Deu (Barcelona, Spain). Cancer cell lines used in these experiment included cancer types of adult glioma (U373 and U87 cell lines), pediatric gliomas including diffuse intrinsic pontine glioma (HSJD-DIPG-007, HSJD-DIPG-011), and pediatric high-grade glioma (HSJD-GBM-001), retinoblastoma (HSJD-RBT-5, HSJD-RBT-7 and HSJD-RBT-14), Ewing sarcoma (A673), rhabdomyosarcoma (Rd and RH4) and neuroblastoma (LAN-1 and SK-N-JD cell lines and HSJD-NB-004, HSJD-NB-005 and HSJD-NB-016 patient-derived cell models). Briefly, between 3000 and 30,000 cancer cells were cultured in 96 well plates and 24 h later the cells were exposed to compound SN38-linker A-MiniAp4 (Ia) (concentration range 1-0.00000001 μM), SN38 (concentration range 1-0.00000001 μM), or irinotecan (concentration range 100-0,000001 μM). To add the drugs to the cells in culture, SN38-linker A-MiniAp4 (Ia) and irinotecan were prepared in culture medium from stock solutions at concentration 1 mg/mL in water. SN38 was prepared in culture medium from a stock solution at concentration 1 mg/mL in DMSO. The tetrazolium compound [3-(4,5-dimethylthiazol-2-yl)-5-(3-carboxymethoxyphenyl)-2-(4-sulfophenyl)-2H-tetrazolium] (MTS assay; Promega, Fitchburg, WI) was used to determine cell viability after 72 h incubation with the drugs. The concentrations of drug required to cause a reduction of 50% in cell proliferation (IC50 and 95% confidence intervals) were calculated with Graphpad Prism 8 software (La Jolla, CA). Activity curves were built for adult glioma cell lines U87 (FIG. 1) and U373 (FIG. 2), pediatric gliomas including DIPG models HSJD-DIPG-007 (FIG. 3) and HSJD-DIPG-011 (FIG. 4), and pediatric high-grade glioma model HSJD-GBM-001 (FIG. 5), retinoblastoma models HSJD-RBT-5 (FIG. 6), HSJD-RBT-7 (FIG. 7) and HSJD-RBT-14 (FIG. 8), Ewing sarcoma cell line A673 (FIG. 9), rhabdomyosarcoma cell lines Rd (FIG. 10) and RH4 (FIG. 11), neuroblastoma cell lines LAN-1 (FIG. 12) and SK-N-JD (FIG. 13) and neuroblastoma patient-derived cell models HSJD-NB-004 (FIG. 14), HSJD-NB-005 (FIG. 15) and HSJD-NB-016 (FIG. 16). The established IC50 values are in Table 3.
The present inventors compared the activity of the new compound SN38 conjugated with MiniAp4 (SN38-linkerA-MiniAp4, example 7 also named G2B-001) and with SN38-linker B-THRre (comparative example 2). Original compound SN38 was used as reference. Cancer cell lines used in these experiments were pediatric gliomas including diffuse intrinsic pontine glioma HSJD-DIPG-007, and pediatric high-grade glioma HSJD-GBM-001. Briefly, 3000 cancer cells were cultured in 96 well plates and 24 h later the cells were exposed to compound compound (Ia) (concentration range 1-0.00000001 μM), SN38-Linker B-THRre (concentration range 1-0.00000001 μM), and SN38 (concentration range 1-0.00000001 μM). To add the drugs to the cells in culture, SN38-Linker A-MiniAp4 (Ia) and SN38-Linker B-THRre were prepared in culture medium from stock solutions at concentration 1 mg/mL in water. SN38 was prepared in culture medium from a stock solution at concentration 1 mg/mL in DMSO. The MTS assay was used to determine cell viability after 72 h incubation with the drugs. The concentrations of drug required to cause a reduction of 50% in cell proliferation (IC50 and 95% confidence intervals) were calculated with Graphpad Prism 8 software (La Jolla, CA). Activity curves were built for cells HSJD-DIPG-007 (FIG. 20) and HSJD-GBM-001 (FIG. 21). The established IC50 values are in Table 4.
Cancer cell lines used in these experiments were pediatric gliomas including diffuse intrinsic pontine glioma HSJD-DIPG-007, and pediatric high-grade glioma HSJD-GBM-001. Briefly, 3000 cancer cells were cultured in 96 well plates and 24 h later the cells were exposed to compounds (Ia), comparative example 1 and comparative example 2 (concentration range 1-0.001 μM for each of them). […]

[2] = tested on: neuroblastoma cell line SK-N-JD; experiment: MTS cell viability assay, neuroblastoma cell line SK-N-JD; type: cell-based; settings: 72 h incubation, Example 9, Table 3, read-out: IC50 values against cancer cell lines
Description: as §1, with “Briefly, between 3000 and 30,000 cancer cells were cultured in 96 well plates and 24 h later the cells were exposed to compound SN38-linker A-MiniAp4 (Ia) (concentration range 1-0.00000001 μM), SN38 (concentration range 1-0.00000001 μM), or irinotecan (concentration range 100-0,000001 μM).” left out, “The tetrazolium compound [3-(4,5-dimethylthiazol-2-yl)-5-(3-carboxymethoxyphenyl)-2-(4-sulfophenyl)-2H-tetrazolium] (MTS assay; Promega, Fitchburg, WI) was used to determine cell viability after 72 h incubation with the drugs. The concentrations of drug required to cause a reduction of 50% in cell proliferation (IC50 and 95% confidence intervals) were calculated with Graphpad Prism 8 software (La Jolla, CA).” left out

[3] = Example 9, Table 3, read-out: IC50 values against cancer cell lines
[4] = Example 11, Table 4, read-out: IC50 values of compounds

SMILES | IC50 [1, 3] [µM] | IC50 [1, 4] [µM] | IC50 ([1]; Example 12, Table 5, read-out: IC50 values (μM) against cancer cell lines) [µM] | IC50 [2] [nM] | IC50 ([2]; Neuroblastoma cell) [nM]
CCc1c2c(nc3ccc(O)cc13)-c1cc3c(c(=O)n1C2)COC(=O)[C@@]3(CC)OC(=O)CCCCn1cc(CCCC(=O)NCCCOCCOCCOCCCNC(=O)CCC(=O)N[C@H]2CNC(=O)C[C@@H](C(N)=O)NC(=O)[C@H](CC(C)C)NC(=O)[C@H](C)NC(=O)[C@H]([C@@H](C)O)NC(=O)[C@H](CCC(=O)O)NC(=O)[C@@H]3CCCN3C(=O)[C@H](C)NC(=O)[C@H](CCCCN)NC2=O)nn1 [SN38-linker A-MiniAp4 (Ia)] ({X1-Suc}-[Dap]KAPETALD-NH2; lactam 1-9) | 0.0703 | 0.00639 | 0.0216 | 13.9 | 
CCc1c2c(nc3ccc(OC(=O)N4CCC(N5CCCCC5)CC4)cc13)-c1cc3c(c(=O)n1C2)COC(=O)[C@]3(O)CC [Irinotecan] | 9.57 |  |  |  | 7760
CCc1c2c(nc3ccc(O)cc13)-c1cc3c(c(=O)n1C2)COC(=O)[C@]3(O)CC [SN38, 7-ethyl-10-hydroxy-camptothecin] | 0.00261 | 0.00631 |  |  | 7.55
